Data taken from patent US6235789A, “Benzocycloalkene compounds, their production and use” (Takeda Chemical Industries, Ltd., priority 1994, dated 2001).

Molecular target: melatonin receptor
Test: Inhibition of 2-[^125 I]iodomelatonin binding in forebrain homogenate of 7-day-old chicken
Parameters: species or system chicken (white leghorn)
Conditions: 80 pM 2-[^125 I]iodomelatonin, 90 minutes at 25° C., 7-day-old chicken forebrain homogenate, log-probit analysis; read-out: IC50, action of inhibiting 2-[^125 I]iodomelatonin binding
Experimental: The farebrains of 7-day-old chicken (white leghorn) were homogenized with ice-cold assay buffer (50 mM Tris-HCl, pH 7.7 at 25° C.) and centrifuged at 44,000×g for 10 minutes at 4° C. The pellet was washed once with the same buffer and stored at -30° C. until use. For the assay, the frozen tissue pellet was thawed and homogenized with the assay buffer to make a protein concentration of 0.3-0.4 mg/ml. […] The reaction was terminated by adding 3 ml of ice-cold assay buffer immediately followed by vacuum filtration on Whatman GF/B which was further washed twice with 3 ml of ice-cold assay buffer. The radioactivity on the filter was determined by means of γ-counter.

SMILES: COc1ccc2c(c1)/C(=C/CNC(=O)C(F)(F)F)CCC2 [compound 33]
- IC50: 0.72 nM

SMILES: CC(=O)NCCC1CCCc2ccc(O)cc21 (stereo not drawn) [compound 35]
- IC50: 0.95 nM

SMILES: COc1ccc2c(c1)[C@H](CCNC(C)=O)CC2 [compound 66]
- IC50: 0.7 nM
